# Assay results as given in PubChem BioAssay AID2305 (GlaxoSmithKline (GSK), 2010).
# Where “and” joins values, the source holds several entries; their conditions need not be identical. Equal values may be shown once.
# System: P. falciparum 3D7 growth, pLDH absorbance
# Test: P. falciparum 3D7 growth inhibition, dose response, strain 3D7 (AID 2305)
row,SMILES,IC50
1,Cc1ccc(-c2ccc(Cl)cc2Oc2cnc(N)nc2N)o1,1080 nM
2,Cc1cccc(-c2nn(-c3ccccc3)c3[nH]c(=O)c(CN4CCSCC4)cc23)c1,1010 nM
3,CS(=O)(=O)N(c1ccc(F)cc1)c1cc(C(=O)N[C@@H](Cc2ccccc2)[C@H](O)CNCc2cccc(C(F)(F)F)c2)cc(N2CCCC2=O)c1,1350 nM
4,O=C(Nc1ccc(Cl)cc1F)NC1CCN(CCCCCNC(=O)[C@@H]2C[C@H]2c2ccc(Cl)c(Cl)c2)CC1,510 nM
5,CN1CCC(NCc2ccc(-c3ccc(S(=O)(=O)NCc4ccccc4)cc3)cc2)CC1,830 nM
6,CCCCc1ccccc1NS(=O)(=O)c1ccc(OC)c(N2CCNCC2)c1,1380 nM
7,O=C(Nc1ccc(Cl)cc1)OCCn1nnnc1C(c1ccc(Cl)cc1)N1CCOCC1 (configuration not stated),1180 nM
8,Clc1ccc2c(NCc3ccc4c(c3)OCO4)ccnc2c1,270 nM
9,Cc1ccc(CN2CCN(CC(O)COc3ccc4c(c3)CCC4)CC2)cc1 (configuration not stated),860 nM
10,CC(C)[C@H](NC(=O)c1ccc(O)c(-c2cccc(C(F)(F)F)c2)c1)C(=O)NC1CCCc2ccccc21 (some centres not stated),930 nM
11,Cc1cc(C(=O)Nc2ccc3c(c2)CCN3C2CCN(Cc3cc(F)cc(F)c3F)C2)no1 (configuration not stated),280 nM
12,Cc1cc(NN=Cc2ccccc2[N+](=O)[O-])c2ccc(F)cc2n1,350 nM
13,Oc1ccc(Cc2cc(Oc3c(I)cc(CCc4ncc[nH]4)cc3I)ccc2O)cc1,710 nM
14,c1cc(-c2ccc(CNCCc3ccncc3)cc2)cc(-c2nc3ccccc3[nH]2)c1,140 nM
15,O=C(NCc1ccc(Cl)c(Cl)c1)c1ccc(-c2nc3ccc(F)cc3[nH]2)cc1,1030 nM
16,COc1cc(C(=O)N2CCOC(CCN3CCC(Cc4ccc(F)cc4)CC3)(c3ccc(Cl)c(Cl)c3)C2)cc(OC)c1OC (configuration not stated),900 nM
17,Cc1cccc(Nc2c(-c3cc(Br)ccc3O)nc3ncccn23)c1,210 nM
18,Fc1ccc2nc(-c3ccc(-c4cccc(CN5CCN(CCN6CCOCC6)CC5)c4)cc3)[nH]c2c1,140 nM
19,CN(c1ccc(F)cc1)S(=O)(=O)c1ccc(Cl)c(C(=O)Nc2cccc(C#N)c2)c1,700 nM
20,CC(C)(C)c1ccc(CN2CCC(NC(=O)c3ccc(-c4ccccc4Cl)s3)CC2)cc1,1350 nM
21,CN1CCN(CCCN(Cc2csc(-c3ccc(CNCc4ccccc4)cc3)n2)S(=O)(=O)c2ccccc2)CC1,770 nM
22,CCN(CCS(C)(=O)=O)Cc1ccc(-c2ccc3ncnc(Nc4ccc(OCc5cccc(F)c5)c(Cl)c4)c3c2)o1,610 nM
23,CCN(CC)CCCCOc1ccc2c(c1)C(=O)c1cc(OCCCCN(CC)CC)ccc1-2,760 nM
24,CC(C)CN(C)c1ncnc2c1nc(-c1cncc(C#N)c1)n2CCNCc1ccccc1,1360 nM
25,Cc1cc(C(=O)Nc2ccc3c(c2)CCN3C2CCN(Cc3ccc4nsnc4c3)C2)no1 (configuration not stated),640 nM

row,SMILES,IC50
1,Cc1nnc2c(NC(=O)NC3CCCC3)cc3cc(-c4ccc(CN5CCCCC5)cc4)ccc3n12,950 nM
2,Cc1ccc(NC(=O)c2ccc(C(=O)NC3CCN(CC4CCCCC4)CC3)cc2)cc1,900 nM
3,COc1cccc2c(Oc3ccccc3C)ccnc12,1230 nM
4,CCOc1cccc(C(=O)Nc2cccc(CN3CCCN(Cc4cccc(O)c4)CC3)c2)c1,1090 nM
5,Cc1cccc2[nH]c(-c3cccc(-c4cccc(NC(=O)C5CC(=O)Nc6ccccc65)c4)c3)nc12 (configuration not stated),60 nM
6,O=C(Nc1cccc(OCCN2CCCC2)c1)Nc1ccc(Cl)c(Cl)c1,770 nM
7,CC(=O)N/N=C/[C@H](CCc1ccccc1)NC(=O)[C@H](CC(C)C)NC(=O)c1ccc(F)cc1,690 nM
8,CCCCCCOc1ccc(C(=O)N[C@H]2CCN(CCCCCNC(=O)/C=C/c3ccc(Cl)c(Cl)c3)C2)cc1,690 nM
9,O=C(Nc1cccc(-c2cccc(-c3nc4ccc(C(F)(F)F)cc4[nH]3)c2)c1)c1ccncc1,200 nM
10,NC1=NC(C=Cc2ccccc2)N(OCCCCCCON2C(N)=NC(N)=NC2C=Cc2ccccc2)C(N)=N1 (configuration not stated),610 nM
11,C[C@H](NC(=O)c1c(CN2CCC(N3CCCCC3)CC2)c(-c2ccccc2)nc2cc(O)ccc12)C1CCCCC1,760 nM
12,NC1CCCN(Cc2cccc(-c3cccc(-c4nc5ccccc5[nH]4)c3)c2)C1 (configuration not stated),640 nM
13,COc1ccc(C(=O)N2CCC(C(=O)NC(C)c3ccc(-n4ccnc4)cc3)CC2)c2ccccc12 (configuration not stated),1130 nM
14,Clc1ccc2c(NCc3ccccc3)ccnc2c1,340 nM
15,CCCCCN1C(=O)N(c2ccc(Cl)c(Cl)c2)C(N(O)C(=O)Nc2ccc(Cl)c(Cl)c2)C1(C)C (configuration not stated),550 nM
16,C[C@H](NC(=O)C1CCCC1)C(=O)Nc1ccc(-c2ccc(-c3nc4ccc(C(F)(F)F)cc4[nH]3)cc2)cc1,270 nM
17,Cc1cn(CC(=O)Nc2cccc(-c3cccc(-c4nc5c(C)cccc5[nH]4)c3)c2)c(=O)[nH]c1=O,580 nM
18,CC(C)c1ccc(CN2CCC(CNC(=O)c3cc(-c4cccc(F)c4)cs3)C2)cc1 (configuration not stated),1660 nM
19,O=C(O)CCc1ccc(-c2c[nH]c3ncc(-c4ccc5ncccc5c4)cc23)cc1,300 nM
20,O=C(c1cc(C(=O)NCc2ccc(Cl)cc2)c(=O)n(Cc2ccc(Cl)cc2)c1)c1cc(Cl)ccc1O,1400 nM
21,O=C(C=Cc1ccc(Cl)c(Cl)c1)NCCCCCN1CCCC(CCCNC(=O)c2cccs2)C1 (configuration not stated),1300 nM
22,COC(=O)Nc1cc(C(F)(F)F)ccc1N1CCC(CNS(=O)(=O)c2ccc(OC)cc2)CC1,250 nM
23,Cc1cc(NN=Cc2ccccc2F)c2ccccc2n1,920 nM
24,COC(=O)/C=C/C(=O)N[C@@H]1CC[C@@]2(O)[C@H]3Cc4ccc(O)c5c4[C@@]2(CCN3CC2CC2)[C@H]1O5,640 nM
25,O=C(NCCCN1CCN(c2cccc(Cl)c2)CC1)c1ccc(-c2nc3cc(Cl)c(Cl)cc3[nH]2)cc1,700 nM

row,SMILES,IC50
1,CC(C)(C)c1ccc(NC(=O)c2cccc(CN3CCCN(Cc4ccsc4)CC3)c2)cc1,760 nM
2,COc1ccc(C(=O)NC2CCN(c3ccnc4cc(Cl)ccc34)C2)cc1 (configuration not stated),230 nM
3,Cc1ccc(NC(=O)c2cc([N+](=O)[O-])ccc2NCc2cccnc2)cc1Cl,1120 nM
4,COc1cccc(-c2cnc(N)c(-c3nc4cc(Cl)c(F)cc4[nH]3)c2)c1,540 nM
5,O=C(NCc1cccs1)[C@H](Cc1ccccc1)Nc1ccnc(NCCc2ccccc2)n1,1050 nM
6,O=C(C=Cc1cn(-c2ccccc2)nc1-c1ccccc1)N1CCN(c2ccncc2)CC1,960 nM
7,c1ccc(CCNCc2ccc(-c3ccc(CNCc4ccc5c(c4)OCO5)cc3)nc2)cc1,1250 nM
8,COc1cc(NC(=O)NC(CCN2CCC3(CCc4ccccc43)CC2)c2ccc(Cl)c(Cl)c2)cc(OC)c1OC (configuration not stated),680 nM
9,O=C(Cc1ccc(F)cc1)NC1CCN(c2ccnc3cc(Cl)ccc23)C1 (configuration not stated),480 nM
10,COc1ccc(CNCc2ccc(F)cc2)cc1-c1cccc(S(=O)(=O)NCCN2CCCC2)c1,800 nM
11,Cc1ncccc1-c1cccc2c(NC(=O)Nc3ccc4nccc(N5CCN(C)CC5)c4c3)cccc12,630 nM
12,Cc1ccc(-c2[nH]n3c(=O)c4c(nc3c2C)CCCC4)cc1,220 nM
13,COc1ccc2ncc(C#N)c(CCN3CCC(NCc4ccc5c(c4)OCCO5)CC3)c2c1,910 nM
14,CN(C)CCCc1cc(NC(=O)Nc2cccc(Cl)c2Cl)ccc1I,540 nM
15,CC1(C)N=C(N)NC(Nc2ccc(F)c(F)c2)=N1,50 nM
16,Cc1ccc(C(NC(=O)c2ccccc2)c2ccc3cccnc3c2O)cc1 (configuration not stated),960 nM
17,CCCCCCCN1CC[C@@H](CCCc2ccnc3ccc(OCCN4CCNCC4)cc23)[C@@H](CC)C1,770 nM
18,NC(Cc1ccc(Cl)cc1)=NCCN1CCCCCC1,740 nM
19,Cc1cc(=O)c2cc(Oc3cccc(OC(F)(F)F)c3)ccc2[nH]1,860 nM
20,CS(=O)(=O)Nc1cccc(-c2cnc3[nH]cc(-c4ccc(C(=O)O)cc4)c3c2)c1,860 nM
21,Cc1cccc(N2CCN(C3CCC(NC(=O)c4cc5ccccc5[nH]4)CC3)CC2)c1C (configuration not stated),610 nM
22,CCN(CCCN1CCCCC1)c1cc(C)nc(Nc2ccc(C)cc2)n1,410 nM
23,COc1ccc(CNC2CCN(C)CC2)cc1-c1cccc(S(=O)(=O)NCc2ccccc2)c1,720 nM
24,Oc1ccc2[nH]c(-c3ccc(OC(F)(F)F)cc3)nc2c1CNC1CCCC1,1750 nM
25,COc1ccc(C2CCN(CCCCNC(=O)c3ccc(NC(=O)c4ccc(Cl)cc4)cc3)C2)c(OC)c1 (configuration not stated),1200 nM

row,SMILES,IC50
1,CCCN(CCC)CC(O)COc1ccccc1C(=O)Nc1ccccc1 (configuration not stated),800 nM
2,CCCOC(=O)C1=C(C)NC2=C(C(=O)CC(c3ccc(OC)c(OC)c3)C2)C1c1cccc(O)c1 (configuration not stated),120 nM
3,CCOC(=O)C1=C(C)NC2=C(C(=O)CC(C)(C)C2)C1c1ccc(Br)cc1 (configuration not stated),1160 nM
4,COc1cc(Cc2cnc(N)nc2N)c2ccsc2c1OC,1070 nM
5,Fc1ccc2ncc(Cl)c(CCN3CCC(NCc4cc5c(cn4)OCCO5)CC3)c2c1,880 nM
6,O=C(N[C@@H](Cc1ccccc1)[C@H](O)CNC1CCCCC1)c1cc(C2CCCC2)cc(N2CCCC2=O)c1,170 nM
7,CCN1CCc2nc3ccccc3c(C(=O)Nc3ccc(C#N)cc3)c2C1,780 nM
8,COc1ccc2nccc([C@@H](O)CN3CCC(NCc4cc5ccccc5o4)CC3)c2c1,660 nM
9,CCOc1ccccc1C(=O)N1CCc2cc3nccc(N4CCN5CCC[C@H]5C4)c3cc21,750 nM
10,Cn1c(=O)c2cc(C(=O)NCCCN3CCCCCC3)sc2c2ccccc21,690 nM
11,COc1cc2nc(N3CCC(CNC(=O)c4ccc(-c5ccc(C#N)cc5)cc4)CC3)nc(N)c2cc1OC,800 nM
12,Oc1ccc(CN2CC[C@@H](N3CCN(CCc4ccccc4)CC3)[C@H](O)C2)cc1Cl,870 nM
13,O=C(Nc1ccccc1)N(Cc1ccc(-c2ccc(CNCc3ccc4c(c3)OCO4)cc2)cc1)C1CCN(Cc2ccccc2)CC1,570 nM
14,O=[N+]([O-])c1ccc(Oc2c(Cl)cc(S(=O)(=O)N3CCC(CN4CCC(c5c[nH]c6ccccc56)CC4)CC3)cc2Cl)c(Cl)c1,1000 nM
15,Cc1ccc2[nH]cc(C3CCN(CC4CCC(NC(=O)/C=C/c5ccc(Cl)c(Cl)c5)CC4)CC3)c2c1 (configuration not stated),840 nM and 550 nM
16,O=C(Nc1cccc(CN2CCCN(Cc3ccc(O)cc3)CC2)c1)c1ccc(Br)cc1,800 nM
17,Nc1ncc(-c2cc3ccccc3o2)c(N)n1,1410 nM
18,COC(=O)c1ccc(CC(C)NCC(O)c2cccc(Cl)c2Cl)cc1 (configuration not stated),550 nM
19,COc1ccc(Nc2nccc(-c3ccc4ccnc(NCCCCN)c4c3)n2)cc1,750 nM
20,O=C(Nc1ccc(C(=O)Nc2ccc(C3=NCCN3)cc2)cc1)Nc1ccc(C2=NCCN2)cc1,180 nM
21,C[C@H](Nc1nc(C(Oc2ccccc2)c2ccccc2)nc2[nH]ncc12)c1ccccc1 (some centres not stated),480 nM
22,CN(C)C(CNC(=O)c1cc(-c2ccncc2)c(-c2ccc(NC(=O)Nc3cccc(F)c3)cc2)o1)c1ccccc1 (configuration not stated),770 nM
